Experimental data published in paper PMC6327044, “A chemical biology screen identifies a vulnerability of neuroendocrine cancer cells to SQLE inhibition” (Nature Communications, 2019).

How the values were obtained:
Assay in all cases: cells
Set-up in all cases: species or system panel of 482 human cancer cell lines; ATPLite luminescence growth inhibition after treatment, nine-point dilution curve, 482 cancer cell lines, 384-well
Settings in all cases: 72 h, recommended growth medium
GSS_STOMACH = tested on: GSS_STOMACH
Procedure: (§1) Cells were seeded in recommended growth media in black 384-well tissue culture treated plates at 500 cells per well. Cells were equilibrated in assay plates via centrifugation and placed in incubators for 24 h before treatment. […] Treated assay plates were incubated with compounds for 72 h and subsequently were developed for endpoint analysis using ATPLite. Each compound was assessed using a nine-point dilution curve. Cells were defined as sensitive to a given compound based on GI75 < 2 μM with manual quality control of curve fit. GI75 is defined as a drug concentration that causes a 75% reduction in assay readout relative to dimethyl sulfoxide (DMSO)-treated controls. To identify novel cancer vulnerabilities, we screened a panel of 482 cell lines with a diverse set of metabolic inhibitors. […] Given that SCLC is thought to arise from neuroendocrine cells in the lung[9], we tested the NB-598 sensitivity in a panel of 42 SCLC cell lines. We calculated a quantitative metric of sensitivity for each cell line based on the area under the curve (AUC) of the mu/mu.max curve to more accurately capture the potency and extent of NB-598 effects. […] We categorized the SCLC cell lines as sensitive (5/42), moderate (11/42), and insensitive (26/42) (Fig. 1c and Supplementary Data 2) and focused all subsequent efforts on this indication. […] To further understand the patterns of sensitivity, we conducted RNA sequencing (RNA-Seq; Supplementary Data 3) and proteomic (Supplementary Data 4) characterization of the SCLC panel to identify unbiased expression signatures associated with enhanced NB-598 response (Supplementary Fig. 1 and Supplementary Fig. 2). Given the growing understanding that SCLC tumors can be further subdivided based on the status of lineage-defining transcription factors, ASLC1 and NEUROD1, we specifically investigated NB-598 response as the function of ASCL1 and NEUROD1 expression levels. […] To further dissect the NB-598 response within the ASCL1-high/NEUROD-low subset of 25 cell lines, we identified RNA-Seq and proteomics expression signatures associated with NB

SKMEL3_SKIN = tested on: SKMEL3_SKIN
Procedure: as §1

NCIH2106_LUNG = tested on: NCIH2106_LUNG
Procedure: as §1

NCIN87_STOMACH = tested on: NCIN87_STOMACH
Procedure: as §1

SKNBE2_AUTONOMIC_GANGLIA = tested on: SKNBE2_AUTONOMIC_GANGLIA
Procedure: as §1

[1] = tested on: YD10B_UPPER_AERODIGESTIVE_TRACT
Procedure: as §1

NCIH1623_LUNG = tested on: NCIH1623_LUNG
Procedure: as §1

[2] = tested on: MM1R_HAEMATOPOIETIC_AND_LYMPHOID_TISSUE
Procedure: as §1

NCIH2170_LUNG = tested on: NCIH2170_LUNG
Procedure: as §1

NCIH1869_LUNG = tested on: NCIH1869_LUNG
Procedure: as §1

[3] = tested on: HUNS1_HAEMATOPOIETIC_AND_LYMPHOID_TISSUE
Procedure: as §1

HCT8_LARGE_INTESTINE = tested on: HCT8_LARGE_INTESTINE
Procedure: as §1

MKN45_STOMACH = tested on: MKN45_STOMACH
Procedure: as §1

NCIH810_LUNG = tested on: NCIH810_LUNG
Procedure: as §1

NCIH1944_LUNG = tested on: NCIH1944_LUNG
Procedure: as §1

TE4_OESOPHAGUS = tested on: TE4_OESOPHAGUS
Procedure: as §1

OAW28_OVARY = tested on: OAW28_OVARY
Procedure: as §1

- GI50 (SKMEL3_SKIN): 0.263 µM
- GI50 (SKNBE2_AUTONOMIC_GANGLIA): 0.0203 µM
- GI50 [2]: 8.87 µM
- GI50 (HCT8_LARGE_INTESTINE): 10.7 µM
- GI50 (MKN45_STOMACH): 0.605 µM
Compound: CCN(C/C=C/C#CC(C)(C)C)Cc1cccc(OCc2cc(-c3ccsc3)cs2)c1 [NB-598]
- GI50 (GSS_STOMACH): 12.3 µM
- GI50 (NCIH2106_LUNG): 0.0121 µM
- GI50 (NCIN87_STOMACH): 9.65 µM
- GI50 [1]: 0.0714 µM
- GI50 (NCIH1623_LUNG): 0.0194 µM
- GI50 (NCIH2170_LUNG): 0.608 µM
- GI50 (NCIH1869_LUNG): 0.0152 µM
- GI50 [3]: 0.17 µM
- GI50 (NCIH810_LUNG): 0.00733 µM
- GI50 (NCIH1944_LUNG): 0.0271 µM
- GI50 (TE4_OESOPHAGUS): 19.5 µM
- GI50 (OAW28_OVARY): 65.4 µM
